Data from patent publication US20010004643A1, “Pharmaceutical composition with sotalol combination and their use in treatment of cardiac ailments” (priority 1999, published 2001).
Entries after “also recorded” stand apart in the source; their conditions may differ. Marks after values point to notes of the source that are not given here.

What was measured:
[1] = test system: ouabain induced arrhythmia (VT, VF, mortality); assay: Ouabain induced arrhythmia model in guinea pig; assay type: in vivo; conditions: for actual incidence of mortality (value in parenthesis): 60 min; for actual incidence of mortality (value in parenthesis) / actual incidence of VF (value in parenthesis) / actual incidence of VT (value in parenthesis): number of animals of the group; for % INCIDENCE OF MORTALITY: mortality at 60 min; for deaths due to conduction block (60 min), actual incidence (value in parenthesis) / deaths due to tachyarrhythmia (60 min), actual incidence (value in parenthesis): number of animals; for % INCIDENCE OF VF / % INCIDENCE OF VT: ouabain 240 μg/kg in three doses, observed one hour; for DEATHS DUE TO CONDUCTION BLOCK (60 MIN) Percentage / DEATHS DUE TO TACHYARRHYTHMIA (60 MIN) Percentage: percentage deaths out of total mortality; for cause of deaths / mortality compared with control groups: no dose stated
Description: Method: Guinea pigs (Dunken Hartley) of either sex weighing between 400 and 500 g were used for the study. The animals were anesthetized with urethane (1.25 g/kg. i.p.). The left common carotid artery and left jugular vein were cannulated for arterial blood pressure monitoring and intravenous access respectively. Lead II electrocardiogram, arterial blood pressure, mean arterial blood pressure (MABP), heart rate were monitored throughout the experiment.
After initial surgical preparations and allowing 30 minutes for the animal to stabilise the first dose of ouabain (90 μg/kg) was administered over a period of one minute. After the interval of thirty minutes, second dose of ouabain (60 μg/kg) was administered over a period of one minute. One minute after this dose, 0.5 ml saline (in control experiments) was administered over a period of one minute. After an interval of 10 minutes a third dose of ouabain (90 μg/kg) was administered over a period of one minute. […] The test compounds were administered to animals in test group in place of saline to evaluate their antiarrhythmic potential. From the ECG recordings, the incidence of VT, VF and mortality were recorded. The doses of ratios of sotalol isomers studied were 0.1, 0.5 and 2.5 mg/kg.
Interpretation of ECG recordings: Minor disturbance in rhythm was not considered while evaluating ventricular tachyarrhythmias. A run of more than 3 ventricular ectopic beats having wide QRS complexes associated with partial haemodynamic collapse was considered as Ventricular Tachycardia (VT). Total morphological irregularity of repetitive complexes for at least six cycles associated with complete haemodynamic collapse was considered as Ventricular Fibrillation (VF). Successful arrhythmia protection was defined as no occurrence of VT and VF from the injection of saline/test drug till the end of the experiment.
Statistics: Chi square test with continuity correction at 95% confidence limit was applied to find out the statistical significance between control and test groups for incidence of VT, VF and mortality. Whenever, any of the value in a cell was less than 5, Fischer's exact probability test was used.
Results: Different ratios of sotalol in the dose range from 0.02 mg/kg to 12.5 mg/kg were studied in individual groups of animals. In all 18 groups were studied and at least 6 animals were used in each group. In control animals ouabain 240 μg/kg in three divided doses induced reproducible ventricular tachyarrhythmias in guinea pigs. It was observed that ventricular arrhythmias appeared after the administration of the third dose. Guinea pigs which responded early i.e. before or within 1 min. of administration of the second dose, were considered early responders and were not included in the study. […] In the study, control experiments were carried out randomly interspersed in test groups. Among the 42 control animals the incidence of VT was 81%, incidence of VF was 71.4% and the incidence of mortality at 60 minutes was 61.9%.

[2] = test system: beta adrenergic blockade, isolated right auricle preparation of rabbit; assay: Beta blocking potency (pA2 against isoprenaline) in isolated rabbit right auricle; conditions: isoprenaline chronotropic response, Schild's plot
Description: Estimation of the beta blockade of various ratios of d- and l- isomers of sotalol was carried out in the isolated right auricle preparation of rabbit. The spontaneously beating right atrium was dissected and mounted in a 20 ml tissue bath. The resting tension on the atria was set at 1 g. The contractions were recorded using a force displacement transducer. The spontaneous contractions of the right atria were recorded isometrically and the heart rate was obtained as a derived parameter using a ratemeter that gave the output in beats per minute. Six different ratios of d and l isomers were investigated (1:1, 2:1, 3:1, 4:1, 5:1 and 1:0). Dose-response-curves (DRC) for isoprenaline in the isolated atria, using the chronotropic response were determined by cumulative addition of isoprenaline. The pA2 values of each of the ratios were estimated using the classical Schild's plot (Schild, 1957) and the values are shown in Table 1.

[3] = guinea pig, in vivo, listed as 2:1 ratio (d:l)

Structure (SMILES)	actual incidence of mortality (value in parenthesis) ([1]; 0.5 mg/kg)	% INCIDENCE OF MORTALITY ([1]; 0.5 mg/kg)	deaths due to conduction block (60 min), actual incidence (value in parenthesis) ([1]; 0.5 mg/kg)	deaths due to tachyarrhythmia (60 min), actual incidence (value in parenthesis) ([1]; 0.5 mg/kg)	actual incidence of VF (value in parenthesis) ([1]; 0.5 mg/kg)	actual incidence of VT (value in parenthesis) ([1]; 0.5 mg/kg)	% INCIDENCE OF VF ([1]; 0.5 mg/kg)	% INCIDENCE OF VT ([1]; 0.5 mg/kg)	DEATHS DUE TO CONDUCTION BLOCK (60 MIN) Percentage ([1]; 0.5 mg/kg)	DEATHS DUE TO TACHYARRHYTHMIA (60 MIN) Percentage ([1]; 0.5 mg/kg)	protection from deaths due to tachyarrhythmias ([1]; 2.5 mg/kg)	% INCIDENCE OF MORTALITY ([1]; 2.5 mg/kg)	deaths due to conduction block (60 min), actual incidence (value in parenthesis) ([1]; 2.5 mg/kg)	deaths due to tachyarrhythmia (60 min), actual incidence (value in parenthesis) ([1]; 2.5 mg/kg)	actual incidence of VF (value in parenthesis) ([1]; 2.5 mg/kg)	actual incidence of VT (value in parenthesis) ([1]; 2.5 mg/kg)	% INCIDENCE OF VF ([1]; 2.5 mg/kg)	% INCIDENCE OF VT ([1]; 2.5 mg/kg)	DEATHS DUE TO CONDUCTION BLOCK (60 MIN) Percentage ([1]; 2.5 mg/kg)	DEATHS DUE TO TACHYARRHYTHMIA (60 MIN) Percentage ([1]; 2.5 mg/kg)	also measured
CC(C)NCC(O)c1ccc(NS(C)(=O)=O)cc1 (stereo not shown) [2:1 RATIO, N-[4-[1-hydroxy-2-[(1-methylethyl)amino]ethyl]phenyl] methane sulfonamide]	(3)	50.0%	(3)	(0)	(2)	(3)	33.3%	50.0%	100.0%	00.0%	completely protected	16.6%	(1)	(0)	(0)*	(0)*	00.0%	00.0%	100.0%	00.0%	protection against VF ([1]; 0.5 mg/kg): some protection, it was not complete; protection against ouabain induced VT ([1]; 0.5 mg/kg, listed as 2:1 ratio (d:l)): some protection, it was not significant; protection against mortality ([1]; 2.5 mg/kg): protected significantly; protection against arrhythmias (VT and VF) ([1]; 2.5 mg/kg, listed as 2:1): completely protects; also recorded: complete protection; % INCIDENCE OF MORTALITY ([1]; 2.5 mg/kg, listed as 2:1): 16.6%; dose at which complete protection against VT was observed [1, 3]: 2.5 mg/kg; dose that completely protected against VF [1, 3]: 2.5 mg/kg; cause of deaths [1]: due to conduction abnormalities; mortality compared with control groups [1]: less than that of control groups; pA2 Mean ([2]; listed as 2:1): 6.28
CC(C)NCC(O)c1ccc(NS(C)(=O)=O)cc1 (stereo not shown) [3:1 RATIO, N-[4-[1-hydroxy-2-[(1-methylethyl)amino]ethyl]phenyl] methane sulfonamide]	(3)	37.5%	(3)	(0)*	(2)	(3)*	25.0%	37.5%	100.0%	00.0%	completely protected	33.3%	(2)	(0)	(0)*	(0)*	00.0%	00.0%	100.0%	00.0%	actual incidence of mortality (value in parenthesis) ([1]; 0.1 mg/kg): (2); % INCIDENCE OF MORTALITY ([1]; 0.1 mg/kg): 33.3%; deaths due to conduction block (60 min), actual incidence (value in parenthesis) ([1]; 0.1 mg/kg): (1); deaths due to tachyarrhythmia (60 min), actual incidence (value in parenthesis) ([1]; 0.1 mg/kg): (1); actual incidence of VF (value in parenthesis) ([1]; 0.1 mg/kg): (4); actual incidence of VT (value in parenthesis) ([1]; 0.1 mg/kg): (4); % INCIDENCE OF VF ([1]; 0.1 mg/kg): 66.6%; % INCIDENCE OF VT ([1]; 0.1 mg/kg): 66.6%; DEATHS DUE TO CONDUCTION BLOCK (60 MIN) Percentage ([1]; 0.1 mg/kg): 50.0%; DEATHS DUE TO TACHYARRHYTHMIA (60 MIN) Percentage ([1]; 0.1 mg/kg): 50.0%; protection against ouabain induced VT ([1]; 0.5 mg/kg, listed as 3:1 ratio (d:l)): showed protection; protection against arrhythmias (VT and VF) ([1]; 2.5 mg/kg): protected; actual incidence of mortality (value in parenthesis) ([1]; 2.5 mg/kg): (2); protection against arrhythmias (VT and VF) ([1]; 2.5 mg/kg, listed as 3:1): complete protection; % INCIDENCE OF MORTALITY ([1]; 2.5 mg/kg, listed as 3:1 ratio): 33.3%; mortality ([1]; 0.5 and 2.5 mg/kg dose): low; dose at which complete protection against VT was observed ([1]; guinea pig, in vivo, listed as 3:1 ratio (d:l)): 2.5 mg/kg; cause of deaths [1]: due to conduction abnormalities; mortality compared with control groups [1]: less than that of control groups; pA2 Mean ([2]; listed as 3:1): 6.15
